Test results published in US4894389A, “Novel aminoalkyl-substituted heterocyclic sulfur compounds” (Merrell Dow Pharmaceuticals Inc., priority 1987, dated 1990).

Assays:
[1] = test system: spontaneously hypertensive rats; experiment: Antihypertensive activity in vivo: continuous recording of arterial blood pressure in conscious spontaneously hypertensive rats; conditions: ip
Description: For instance, test compounds are administered intraperitoneally (ip) to unanesthetized, spontaneously hypertensive rats and the arterial blood pressure is monitored continuously.

[2] = target: T1, dopamine-β-hydroxylase (DBH) (Bos taurus, UniProt P15101); experiment: DBH inhibition kinetics: conversion of tyramine to octopamine, HPLC with fluorometric quantitation; format: biochemical; conditions: read-out: inhibition constant (ki)
T1 sequence (P15101 1-610): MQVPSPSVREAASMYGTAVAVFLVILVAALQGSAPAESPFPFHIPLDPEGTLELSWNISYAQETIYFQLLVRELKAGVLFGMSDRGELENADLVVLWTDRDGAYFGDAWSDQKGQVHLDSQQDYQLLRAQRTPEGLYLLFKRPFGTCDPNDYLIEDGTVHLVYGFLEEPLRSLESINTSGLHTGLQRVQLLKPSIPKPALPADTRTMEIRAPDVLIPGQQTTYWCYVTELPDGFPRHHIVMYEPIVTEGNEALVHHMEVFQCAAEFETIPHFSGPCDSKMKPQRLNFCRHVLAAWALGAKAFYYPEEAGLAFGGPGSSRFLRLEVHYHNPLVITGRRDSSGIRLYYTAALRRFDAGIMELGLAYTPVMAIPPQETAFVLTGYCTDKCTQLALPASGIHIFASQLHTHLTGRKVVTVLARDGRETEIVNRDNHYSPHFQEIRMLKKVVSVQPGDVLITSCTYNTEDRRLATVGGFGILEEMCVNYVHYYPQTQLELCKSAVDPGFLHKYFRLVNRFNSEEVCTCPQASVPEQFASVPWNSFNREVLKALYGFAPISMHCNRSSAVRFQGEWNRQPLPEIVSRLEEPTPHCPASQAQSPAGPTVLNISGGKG
Description: The DBH inhibitory properties of the compounds of this invention can also readily be determined […] by standard and well known procedures for assaying the conversion of tyramine to octopamine in the presence of DBH, such as the procedure set forth by Feilchenfeld, N. B., Richter, H. W. and Waddell, W. H. in "Time-Resolved Assay of Dopamine Beta Hydroxylase Activity Utilizing High-Pressure Liquid Chromatography", Analyt. Biochem., 122, 124-128 (1982). Determination of the kinetics of DBH inhibition is exemplified by a procedure where the enzyme-assisted conversion of tyramine to octopamine is determined by incubating varying concentrations of test compound with constant concentrations of substrate, enzyme (DBH), molecular oxygen, an electron donor such as ascorbate and the necessary cofactors for the enzyme at optimal temperature and pH. After incubation, the product is separated out by high-performance liquid chromatography and quantitated fluorometrically, from which an inhibition constant (ki) can readily be calculated.

[3] = target: T1, dopamine-β-hydroxylase (DBH); experiment: Time-dependent DBH inhibitory activity in vitro (tyramine substrate, oxygen uptake by polarographic electrode); format: biochemical
Description: Since DBH is a major enzyme in the synthetic pathway of norepinephrine (NE), the presence of a DBH inhibitor would act to decrease the amount of NE produced, and thereby have an antihypertensive effect. The DBH inhibitory properties of the compounds of this invention can readily be determined by standard and well-known procedures. […] The test compound is added at the desired concentration, and the system is incubated. Aliquots are taken at different time intervals and DBH activity is measured using tyramine as the substrate. The reaction is followed by measuring oxygen uptake using a polarographic electrode and an oxygen monitor by the method of S. May, et al., J. Biol. Chem., 256, 2258 (1981).

## NC/C=C1/CCCS1 [Example 6]
[1]
  in vivo antihypertensive activity: active as an in vivo antihypertensive agent

## 1,3-Dithiolane-2-ethanamine [Example 2]
[2]
  Ki: 11 µM

## NCC=C1SCCS1 [compound 1]
[3]
  activity in the time-dependent DBH assay: most active compound of the compounds tested
